Results published in publication PMC7897990, “TriTOX: A novel Trichomonas vaginalis assay platform for high-throughput screening of compound libraries” (International Journal for Parasitology: Drugs and Drug …, 2021).
Read-outs that look alike come from different tables or passages of the source. Non-standard residues stand in square brackets, D forms with d. Residues, ends and D or L forms follow the SMILES beside them. Phe(ol) = N[C@H](CO)Cc1ccccc1; Aib = CC(C)(N)C(=O)O

How the values were obtained:
[1] = system: Trichomonas vaginalis G3 trophozoites; conditions: for T.vaginalis_Absorbance_Rep1: replicate 1, raw absorbance; for T.vaginalis_Absorbance_Rep2: replicate 2, raw absorbance
[2] = system: nontumorigenic neonatal foreskin fibroblast (NFF) cell line
[3] = replicate 1, parasite screen at 1 µg/mL
[4] = replicate 2, parasite screen at 1 µg/mL
[5] = HTS, parasite screen at 1 µg/mL, replicate 1
[6] = HTS, parasite screen at 1 µg/mL, replicate 2
[7] = NFF fibroblast screen at 5 µg/mL, A = active, I = inactive
[8] = HTS replicate 1, parasite screen 1 µg/mL
[9] = HTS replicate 2, parasite screen 1 µg/mL
[10] = NFF fibroblasts, single concentration 5 µg/mL
[11] = HTS single concentration, parasite screen 1 µg/mL, replicate 1
[12] = HTS single concentration, parasite screen 1 µg/mL, replicate 2
[13] = NFF_NS1 screen 5 µg/mL, single concentration
[14] = parasite screen at 1 µg/mL, replicate 1
[15] = parasite screen at 1 µg/mL, replicate 2
[16] = NFF_NS1 screen at 5 µg/mL, NFF cells
[17] = HTS, parasite screen at 1 µg/mL

CN1CCC2(c3cccc4c3NC3N(C)CCC43C34CCN(C)C3Nc3ccccc34)c3ccccc3NC12 (stereo not shown) [BIA-H1948]
T.vaginalis_%inb_Rep1 [1, 3]: 8.81%
T.vaginalis_%inb_Rep2 [1, 4]: 5.36%
NFF_Activity ([2]; NFF cells, screen at 5 µg/mL): A (active (A) compounds having >25% inhibitory activity)

CCC1OC(=O)CC(O)C(C)C(OC2OC(C)C(O)C(N(C)C)C2O)C(CCN2CC(C)CC(C)C2)CC(C)C(=O)C=CC(C)=CC1COC1OC(C)C(O)C(OC)C1OC.O=P(O)(O)O (stereo not shown) [Tilmicosin phosphate]
T.vaginalis_%inb_Rep1 [1, 5]: 8.60%
T.vaginalis_%inb_Rep2 [1, 6]: 12.37%
NFF_Activity [2, 7]: I (otherwise these were reported as inactive (I))

CC(C)=CCC[C@H](C)[C@@]1(O)CC[C@]2(C)C[C@H]3[C@H](C(=O)C[C@@]3(C)O)/C(C=O)=C\C[C@H]21 [Ophiobolin B]
T.vaginalis_%inb_Rep1 [1, 8]: 11.82%
T.vaginalis_%inb_Rep2 [1, 9]: 13.09%
NFF_Activity [2, 10]: A (active (A) compounds having >25% inhibitory activity)

C[C@@H]1CCC[C@@H](O)CCC/C=C/c2cc(O)cc(O)c2C(=O)O1 [Zearalenol, alpha-]
T.vaginalis_%inb_Rep1 [1, 5]: 11.90%
T.vaginalis_%inb_Rep2 [1, 6]: 12.68%
NFF_Activity [2, 7]: I (otherwise these were reported as inactive (I))

Viridicatumtoxin
T.vaginalis_%inb_Rep1 [1, 5]: 8.70%
T.vaginalis_%inb_Rep2 [1, 6]: 2.74%
NFF_Activity [2, 7]: I (otherwise these were reported as inactive (I))

CC(=O)NC(C)(C)C(=O)N1CCC[C@H]1C(=O)NC(C)(C)C(=O)N[C@@H](C)C(=O)NC(C)(C)C(=O)N[C@@H](C)C(=O)N[C@@H](CCC(N)=O)C(=O)NC(C)(C)C(=O)N[C@H](C(=O)NC(C)(C)C(=O)NCC(=O)N[C@@H](CC(C)C)C(=O)NC(C)(C)C(=O)N1CCC[C@H]1C(=O)N[C@H](C(=O)NC(C)(C)C(=O)NC(C)(C)C(=O)N[C@@H](CCC(N)=O)C(=O)N[C@@H](CCC(N)=O)C(=O)N[C@H](CO)Cc1ccccc1)C(C)C)C(C)C [BIA-A1543] (Ac-[Aib]P[Aib]A[Aib]AQ[Aib]V[Aib]GL[Aib]PV[Aib][Aib]QQ[Phe(ol)])
T.vaginalis_%inb_Rep1 [1, 11]: 13.73%
T.vaginalis_%inb_Rep2 [1, 12]: 13.74%
NFF_Activity [2, 13]: I (otherwise these were reported as inactive (I))

O=C1c2c(O)cc(O)cc2OC1(O)Cc1ccc(O)c(O)c1 (stereo not shown) [BIA-A1767]
T.vaginalis_%inb_Rep1 [1, 11]: 15.13%
T.vaginalis_%inb_Rep2 [1, 12]: 38.61%
NFF_Activity [2, 13]: I (otherwise these were reported as inactive (I))

COc1c(-c2ccccc2)c2ccccc2[nH]c1=O [BIA-M1149]
T.vaginalis_%inb_Rep1 [1, 3]: 20.69%
T.vaginalis_%inb_Rep2 [1, 4]: 13.28%
NFF_Activity ([2]; NFF cells, screen at 5 µg/mL): I (otherwise these were reported as inactive (I))

Cc1c2c(c(O)c3c(O)cccc13)C(=O)[C@]1(O)C(=O)C(C(N)=O)=C(O)[C@@H](N(C)C)[C@@H]1C2.Cl [BIA-A1340]
T.vaginalis_%inb_Rep1 [1, 11]: 6.73%
T.vaginalis_%inb_Rep2 [1, 12]: 9.54%
NFF_Activity [2, 13]: I (otherwise these were reported as inactive (I))

CO[C@H]1[C@H](O)[C@@H](O)[C@H](n2c3c(Cl)cccc3c3c4c(c5c6cccc(Cl)c6[nH]c5c32)C(=O)NC4=O)O[C@@H]1CO [BIA-R1075]
T.vaginalis_%inb_Rep1 [1, 14]: 10.49%
T.vaginalis_%inb_Rep2 [1, 15]: 13.95%
NFF_Activity [2, 16]: I (otherwise these were reported as inactive (I))

C[C@H]1CCC/C=C/C(=O)c2c(O)cc(O)cc2CC(=O)O1 [BIA-D1399]
T.vaginalis_%inb_Rep1 [1, 11]: 13.95%
T.vaginalis_%inb_Rep2 [1, 12]: 13.67%
NFF_Activity [2, 13]: A (active (A) compounds having >25% inhibitory activity)

C[C@@]12CCC[C@@]34CCC[C@@H](C=C[C@H]1CC3)N42 [Porantherine]
T.vaginalis_%inb_Rep1 [1, 8]: 9.49%
T.vaginalis_%inb_Rep2 [1, 9]: 15.78%
NFF_Activity [2, 10]: I (otherwise these were reported as inactive (I))

COC(=O)c1cc(O)cc(OC)c1C(=O)c1c(O)cc(C)cc1O [BIA-S1089]
T.vaginalis_%inb_Rep1 [1, 14]: 9.49%
T.vaginalis_%inb_Rep2 [1, 15]: 14.81%
NFF_Activity [2, 16]: A (active (A) compounds having >25% inhibitory activity)

CO[C@H]1/C=C\C=C(\C)C[C@H](C)[C@H](O)[C@H](C)/C=C(C)\C=C(\C)C(=O)O[C@@H]1[C@@H](C)[C@@H](O)[C@H](C)[C@@]1(O)C[C@@H](OC(=O)/C=C/C(=O)O)[C@H](C)[C@@H](C(C)C)O1 [TS 155-2]
T.vaginalis_%inb_Rep1 [1, 5]: 71.89%
T.vaginalis_%inb_Rep2 [1, 6]: 89.46%
NFF_Activity [2, 7]: I (otherwise these were reported as inactive (I))

COC(=O)c1cccc2oc(-c3cccc4oc(-c5ccccc5O)nc34)nc12 [UK-1]
T.vaginalis_%inb_Rep1 [1, 5]: 10.64%
T.vaginalis_%inb_Rep2 [1, 6]: 15.36%
NFF_Activity [2, 7]: I (otherwise these were reported as inactive (I))

CC1=C[C@H]2O[C@@H]3[C@H](O)[C@@H](O)[C@](C)([C@@]2(CO)C[C@@H]1OC(=O)CC(C)C)[C@]31CO1 [BIA-T1934]
T.vaginalis_%inb_Rep1 [1, 14]: 10.70%
T.vaginalis_%inb_Rep2 [1, 15]: 12.37%
NFF_Activity [2, 16]: I (otherwise these were reported as inactive (I))

COc1oc([C@H]2C/C(=C/C(C)=C/c3ccc([N+](=O)[O-])cc3)CO2)c(C)c(=O)c1C [BIA-A1009]
T.vaginalis_%inb_Rep1 [1, 11]: 12.82%
T.vaginalis_%inb_Rep2 [1, 12]: 5.78%
NFF_Activity [2, 13]: I (otherwise these were reported as inactive (I))

COC1=C(OC)C(=O)C(C)=C(C)C1=O [BIA-A1654]
T.vaginalis_%inb_Rep1 [1, 11]: 13.09%
T.vaginalis_%inb_Rep2 [1, 12]: 16.34%
NFF_Activity [2, 13]: A (active (A) compounds having >25% inhibitory activity)

Fulvic acid
T.vaginalis_%inb_Rep1 [1, 5]: 12.65%
T.vaginalis_Absorbance_Rep1 [1, 17]: 0.944
T.vaginalis_%inb_Rep2 [1, 6]: 4.34%
T.vaginalis_Absorbance_Rep2 [1, 17]: 0.68
NFF_Activity ([2]; NFF_NS1 screen at 5 µg/mL): I (otherwise these were reported as inactive (I))

C/C=C/c1cc2c(c(=O)o1)[C@H](O)[C@@H](O)[C@H](C)O2 [BIA-R1896]
T.vaginalis_%inb_Rep1 [1, 14]: 13.39%
T.vaginalis_%inb_Rep2 [1, 15]: 5.58%
NFF_Activity [2, 16]: I (otherwise these were reported as inactive (I))

COc1cc2c(c3oc(=O)c4c(c13)CCC4=O)[C@@H]1C=CO[C@@H]1O2 [BIA-A1232]
T.vaginalis_%inb_Rep1 [1, 11]: 12.06%
T.vaginalis_%inb_Rep2 [1, 12]: 5.64%
NFF_Activity [2, 13]: I (otherwise these were reported as inactive (I))

COc1cc2c(c3oc4cccc(O)c4c(=O)c13)[C@@H]1C=CO[C@@H]1O2 [BIA-S1213]
T.vaginalis_%inb_Rep1 [1, 14]: 10.12%
T.vaginalis_%inb_Rep2 [1, 15]: 14.32%
NFF_Activity [2, 16]: I (otherwise these were reported as inactive (I))

CCC(C(=O)C(C)C(O)C(C)CCc1ccc(C)c(O)c1C(=O)O)C1OC(CC)(C2CCC(O)(CC)C(C)O2)CC1C (stereo not shown) [BIA-L1533]
T.vaginalis_%inb_Rep1 [1, 3]: 11.71%
T.vaginalis_%inb_Rep2 [1, 4]: 10.90%
NFF_Activity ([2]; NFF cells, screen at 5 µg/mL): I (otherwise these were reported as inactive (I))

CC[C@H](C)[C@H]1O[C@]2(C=C[C@@H]1C)C[C@@H]1C[C@@H](C/C=C(\C)[C@@H](O[C@H]3C[C@H](OC)[C@@H](O[C@H]4C[C@H](OC)[C@H](NC(C)=O)[C@H](C)O4)[C@H](C)O3)[C@@H](C)/C=C/C=C3\CO[C@@H]4[C@H](O)C(C)=C[C@@H](C(=O)O1)[C@]34O)O2 [Eprinomectin B1a]
T.vaginalis_%inb_Rep1 [1, 5]: 13.46%
T.vaginalis_Absorbance_Rep1 [1, 17]: 0.959
T.vaginalis_%inb_Rep2 [1, 6]: 14.17%
T.vaginalis_Absorbance_Rep2 [1, 17]: 0.816
NFF_Activity ([2]; NFF_NS1 screen at 5 µg/mL): I (otherwise these were reported as inactive (I))

COc1cc(-c2ccc(O)cc2)c(OC)c(O)c1-c1ccc(O)cc1 [BIA-T1200]
T.vaginalis_%inb_Rep1 [1, 14]: 9.75%
T.vaginalis_%inb_Rep2 [1, 15]: 14.63%
NFF_Activity [2, 16]: I (otherwise these were reported as inactive (I))

C[C@@H]1C[C@H]2O[C@@H]2/C=C\C=C\C(=O)Cc2c(Cl)c(O)cc(O)c2C(=O)O1 [BIA-R1148]
T.vaginalis_%inb_Rep1 [1, 14]: 12.83%
T.vaginalis_%inb_Rep2 [1, 15]: 10.33%
NFF_Activity [2, 16]: A (active (A) compounds having >25% inhibitory activity)

COC1=CC(C)=CC(C)C(O)C(C)CC(C)=CC=CC(OC)C(C(C)C(O)C(C)C(=O)C=CC(C)C(O)C(C)C)OC1=O (stereo not shown) [BIA-B1162]
T.vaginalis_%inb_Rep1 [1, 11]: 15.67%
T.vaginalis_%inb_Rep2 [1, 12]: 18.37%
NFF_Activity [2, 13]: I (otherwise these were reported as inactive (I))

C=C1CCOC2(C(O)C(C)(O)CO)NC(=O)C1(O)NC2=O (stereo not shown) [BIA-B1367]
T.vaginalis_%inb_Rep1 [1, 11]: 15.02%
T.vaginalis_%inb_Rep2 [1, 12]: 15.26%
NFF_Activity [2, 13]: I (otherwise these were reported as inactive (I))

COc1cc2c(c3oc(=O)c4c(c13)CCOC4=O)[C@@H]1C=CO[C@@H]1O2 [BIA-A1234]
T.vaginalis_%inb_Rep1 [1, 11]: 14.70%
T.vaginalis_%inb_Rep2 [1, 12]: 13.02%
NFF_Activity [2, 13]: I (otherwise these were reported as inactive (I))

COc1cccc2oc3c4c(cc(OC)c3c(=O)c12)OC1OC=CC41 (stereo not shown) [BIA-M1214]
T.vaginalis_%inb_Rep1 [1, 3]: 13.54%
T.vaginalis_%inb_Rep2 [1, 4]: 12.19%
NFF_Activity ([2]; NFF cells, screen at 5 µg/mL): I (otherwise these were reported as inactive (I))
